Measured values reported in US7732491B2, “Treatment of breast cancer with a PARP inhibitor alone or in combination with anti-tumor agents” (priority 2007, dated 2010).

Key:
advanced breast tumors = assay: Phase 1b open-label dose escalation study of BA with chemotherapeutic regimens; type: in vivo, human
Lipophilicity = type: physicochemical
From the text: (§1) The person skilled in the art will recognize that BA may be administered in any pharmaceutically acceptable form. e.g. as a pharmaceutically acceptable salt, solvate, or complex. Additionally, as BA is capable of tautomerizing in solution, the tautomeric form of BA is intended to be embraced by the term BA (or the equivalent 4-iodo-3-nitrobenzamide), along with the salts, solvates or complexes. In some embodiments, BA may be administered in combination with a cyclodextrin, such as hydroxypropylbetacyclodextrin.

[1] = tested on: MDA-MB-468 triple negative breast adenocarcinoma cell line; assay: Cell cycle analysis (PI staining, flow cytometry); type: cell-based, human; set-up: G1 / S / G2/M: unit not given here
PARP = biological target: T1, PARP (Homo sapiens, UniProt P09874); assay: PARP inhibition in peripheral mononuclear blood cells (PMBCs) from patients; type: in vivo
T1 construct: endogenous in cells; host or cells: peripheral blood mononuclear cells (PBMCs) from patients
Procedure: The functional activity of PARP before and after treatment of BA will be determined using a PARP activity assay in Peripheral Blood Mononuclear Cells (PBMCs). PBMCs will be prepared from 5 mL blood samples according to procedures described in detail in the study manual and PARP activity/inhibition will be measured.

[2] = tested on: MDA-MB-468 triple negative breast adenocarcinoma cell line; assay: Vital cells, % control; type: cell-based, human
Procedure: (§2) Breast cancer cells are obtained from ATCC and cultured in Dulbecco Modified Eagle Medium with 10% fetal bovine serum. Cells are plated at 10^5 cells per P100 cell culture dish or at 10^4 cells per P60 cell culture dish in the presence of different concentrations compounds or DMSO control. Following treatment, the number of attached cells is measured using Coulter counter, and by staining with 1% methylene blue. Methylene blue is dissolved in 50%-50% mixture of Methanol and water. Cells are plated in 24- or 96-well plates and treated as planned, media are aspirated, cells are washed with PBS, fixed in methanol for 5-10 min, methanol is aspirated and plates are allowed to dry completely. Methylene blue solution is added to wells and plates are incubated for 5 min. Staining solution is removed and plates are washed with dH2O until washes are no longer blue. After plates are completely dry, a small amount of 1N HCl is added to each well to extract the methylene blue. The OD readout at 600 nm and a calibration curve are used to determine cell number.
After the addition of drugs and incubation, cells are trypsinized and aliquots of the samples are taken for counting and PI (Propidium Iodide) exclusion assay. One part of the cells is centrifuged and resuspended in 0.5 ml ice-cold PBS containing 5 μg/ml of PI. The other part of the cells is fixed in ice-cold 70% ethanol and stored in a freezer overnight. For cell cycle analysis, cells are stained with propidium iodide (PI) by standard procedures. Cellular DNA content is determined by flow cytometry using BD LSRII FACS, and the percentages of cells in G1, S or G2/M are determined using ModFit software.
as §2, with “min.” for “min,”
PI exclusion, cell cycle, TUNEL assays, and BrdU labeling assays are performed as described above in Example 2.

[3] = Tissue distribution / blood-brain barrier; details: in vivo
From the text: as §1
While not wishing to be bound by any particular theory, it is believed that BA achieves its anti-neoplastic effect by inhibiting the function of PARP. In some embodiments, BA can be used in the treatment of triple negative metastatic breast tumors. In some embodiments, BA can be used in the treatment of breast tumors in which at least one of ER, PR, and Her2 is negative. In some embodiments, BA can be used in the treatment of breast tumors in which at least two of ER, PR, and Her2 is negative, e.g. ER-negative, PR-negative, and Her-2 positive; or ER-positive, PR-negative, and Her-2 negative; or ER-negative, PR-positive, and Her-2 negative.

[4] = in vivo; cited from earlier work
[5] = tested on: panel of 63 other kinases, including native c-Abl; details: cited from earlier work
Bcr-abl = details: read-out: inhibits Bcr-abl phosphorylation, IC50; cited from earlier work
[6] = prepared as directed (10 mg/ml); room temperature; cited from earlier work

T1 sequence (P09874 whole entry): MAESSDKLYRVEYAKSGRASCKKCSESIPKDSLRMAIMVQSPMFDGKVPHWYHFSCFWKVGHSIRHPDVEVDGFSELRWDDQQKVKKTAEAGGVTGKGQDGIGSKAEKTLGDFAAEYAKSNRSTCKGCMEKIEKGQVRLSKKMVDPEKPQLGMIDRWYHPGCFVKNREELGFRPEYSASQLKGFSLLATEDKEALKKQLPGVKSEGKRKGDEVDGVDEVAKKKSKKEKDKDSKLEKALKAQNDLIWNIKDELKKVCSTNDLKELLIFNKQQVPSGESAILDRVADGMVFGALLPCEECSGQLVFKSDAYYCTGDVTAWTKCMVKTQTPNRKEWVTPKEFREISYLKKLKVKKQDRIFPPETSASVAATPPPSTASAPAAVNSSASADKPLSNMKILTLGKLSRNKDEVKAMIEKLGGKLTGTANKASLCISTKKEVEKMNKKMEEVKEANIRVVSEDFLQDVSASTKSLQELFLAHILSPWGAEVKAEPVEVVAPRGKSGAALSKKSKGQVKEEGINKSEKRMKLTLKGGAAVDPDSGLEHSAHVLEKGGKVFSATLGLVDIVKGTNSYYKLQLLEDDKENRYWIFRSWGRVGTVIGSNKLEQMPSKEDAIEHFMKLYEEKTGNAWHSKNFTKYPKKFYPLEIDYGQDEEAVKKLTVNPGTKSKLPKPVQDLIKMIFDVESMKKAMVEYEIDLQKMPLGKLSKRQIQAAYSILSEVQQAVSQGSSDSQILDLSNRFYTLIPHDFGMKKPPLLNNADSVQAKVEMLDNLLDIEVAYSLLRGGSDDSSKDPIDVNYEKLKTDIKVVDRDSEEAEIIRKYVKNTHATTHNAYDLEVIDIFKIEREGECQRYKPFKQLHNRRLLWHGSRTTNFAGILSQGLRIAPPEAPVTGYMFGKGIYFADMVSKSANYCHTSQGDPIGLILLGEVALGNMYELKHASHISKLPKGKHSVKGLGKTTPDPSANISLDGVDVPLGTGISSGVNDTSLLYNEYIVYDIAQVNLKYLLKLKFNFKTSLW

SMILES: NC(=O)c1ccc(I)c([N+](=O)[O-])c1 [BA, 4-iodo-3-nitrobenzamide]
- subjects with evidence of stable disease for 2 cycles of treatment or more (advanced breast tumors; BA in combination with chemotherapeutic regimens): Approximately 80%
- tolerability of combination of BA with each cytotoxic regimen (advanced breast tumors; with topotecan, gemcitabine, temozolomide, or carboplatin+paclitaxel): well tolerated
- lipophilicity (Lipophilicity): very lipophilic
- effect on cell cycle arrest and antiproliferative effect of gamma irradiation ([1]; 3 gray of gamma irradiation with 100 μM of BA, FIG. 6): potentiates S- and G2/M cell cycle arrest and enhances the antiproliferative effect of gamma irradiation
- effect on cell cycle arrest and cytotoxic effects induced by PPP ([1]; BA in combination with PPP): potentiates S- and G2/M cell cycle arrest and enhances cytotoxic effects
- effect on cell cycle arrest and cytotoxic effects induced by carboplatin or gemcitabine ([1]; BA in combination with gemcitabine or carboplatin, FIG. 2): potentiates S- and G2/M cell cycle arrest and enhances cytotoxic effects
- effect on cell cycle arrest and cytotoxic effects induced by irinotecan ([1]; BA in combination with irinotecan): potentiates S- and G2/M cell cycle arrest and enhances cytotoxic effects
- G1 ([1]; Irinotecan 0 uM + BA 50 uM): 65.50
- G2/M ([1]; Irinotecan 0 uM + BA 50 uM): 11.02
- S ([1]; Irinotecan 0 uM + BA 50 uM): 23.48
- G1 ([1]; Irinotecan 0 uM + BA 100 uM): 57.72
- G2/M ([1]; Irinotecan 0 uM + BA 100 uM): 15.34
- S ([1]; Irinotecan 0 uM + BA 100 uM): 26.93
- G1 ([1]; PPP 0 nM + 201 50 uM): 50.20
- G2/M ([1]; PPP 0 nM + 201 50 uM): 15.21
- S ([1]; PPP 0 nM + 201 50 uM): 31.34
- G1 ([1]; PPP 0 nM + 201 100 uM): 40.63
- G2/M ([1]; PPP 0 nM + 201 100 uM): 20.16
- S ([1]; PPP 0 nM + 201 100 uM): 34.52
- biologically relevant dose that elicits significant and sustained PARP inhibition (PARP; Phase 1b): 2.8 mg/kg
- PARP inhibition in PBMCs from patients (PARP; after multiple dosing with BA doses of 2.8 mg/kg or higher, FIG. 3): significant and prolonged PARP inhibition
- vital cells, % control ([2]; Irinotecan 0 uM + BA 50 uM): 91.5 % control
- vital cells, % control ([2]; Irinotecan 0 uM + BA 100 uM): 67.5 % control
- Vital Cell % control ([2]; PPP 0 nM + 201 50 uM): 82 % control
- Vital Cell % control ([2]; PPP 0 nM + 201 100 uM): 61 % control
- tissue distribution [3]: distributes rapidly and widely into tissues, including the brain and cerebrospinal fluid (CSF)
- blood-brain barrier [4]: cross the blood-brain barrier

SMILES: CCc1c2c(nc3ccc(OC(=O)N4CCC(N5CCCCC5)CC4)cc13)-c1cc3c(c(=O)n1C2)COC(=O)[C@]3(O)CC [Irinotecan, reference compound]
- G1 ([1]; Irinotecan 5 uM + BA 0 uM): 38.17
- G2/M ([1]; Irinotecan 5 uM + BA 0 uM): 28.05
- S ([1]; Irinotecan 5 uM + BA 0 uM): 33.77
- vital cells, % control ([2]; Irinotecan 5 uM + BA 0 uM): 48.6 % control

SMILES: NC(=O)c1cccc(-c2cc(Nc3ccc(OC(F)(F)F)cc3)ncn2)c1 [GNF-2]
- inhibition of a panel of 63 other kinases, including native c-Abl [5]: does not inhibit
- IC50 (Bcr-abl): 267 nM

SMILES: COc1cc([C@@H]2c3cc4c(cc3[C@H](O)[C@H]3COC(=O)[C@@H]23)OCO4)cc(OC)c1OC [PPP, Picropodophyllin, reference compound]
- G1 ([1]; PPP 200 nM + 201 0 uM): 51.42
- G2/M ([1]; PPP 200 nM + 201 0 uM): 15.01
- S ([1]; PPP 200 nM + 201 0 uM): 30.22
- G1 ([1]; PPP 400 nM + 201 0 uM): 37.29
- G2/M ([1]; PPP 400 nM + 201 0 uM): 20.17
- S ([1]; PPP 400 nM + 201 0 uM): 25.32
- Vital Cell % control ([2]; PPP 200 nM + 201 0 uM): 89 % control
- Vital Cell % control ([2]; PPP 400 nM + 201 0 uM): 60 % control

SMILES: N.N.O=C([O-])C1(C(=O)[O-])CCC1.[Pt+2] [carboplatin]
- stability of carboplatin solutions [6]: eight
